*1 amine or outer side, *2 acyl side, *3 side chain or, on linkers, in order; H or OH if unused. Where a SMILES comes first, the peptide text is derived from it. Bridges are numbered along the chain shown (N, C = ends). Roman numbers before positions name the chains, in order. [ ]: non-standard residue; d: D form. Actinocin(9to1) = Cc1c2oc3c(C)ccc(C(=O)[*:1])c3nc-2c(C(=O)[*:2])c(N)c1=O; NMeV = CN[C@H](C(=O)O)C(C)C; Sar = CNCC(=O)O
Experiments:
[1] = test system: TMV-infected NN tobacco leaves; assay: Induction of necrotic lesion formation by protease inhibitors in TMV-inoculated detached leaves, NN tobacco; format: in vivo, N. tabacum cv. Samsun NN; parameters: key to induction of necrotic lesion formation, Tobacco cv. NN: (−) = Necrotic lesion not induced; (+) = Necrotic lesion induced
Procedure: (§1) The following reagents were used as inhibitors: APMSF, Aprotinin and 3,4-D as serine protease inhibitors, E-64 as a cysteine protease inhibitor, EDTA as a metalloprotease inhibitor, and leupeptin as a serine/cysteine protease inhibitor. Each inhibitor was prepared as described below.
(§2) For EDTA (Wako Pure Chemicals. Ind. (Osaka, Japan), an aqueous solution adjusted to pH 8.0 by NaOH was used.
(§3) For E-64 (Boehringer Mannheim, Germany), a 50 mM solution in methanol/H2O (1:1, v/v) was used as a stock solution and subsequently diluted in water to the concentrations indicated below.
(§4) For 3,4-D (Boehringer Mannheim, Germany), a 50 mM solution in dimethyl sulfoxide was used as a stock solution and subsequently diluted in water to the concentrations indicated below.
(§5) Leupeptin, Aprotinin, and APMSP were each used as an aqueous solution.
(§6) In this example, EDTA was used at concentrations of 1 mM, […] and 50 mM, and other inhibitors were used at concentrations of 0.01 mM, 0.1 mM and 1 mM.
(§7) Prior to reagent treatment, tobacco leaves were detached, inoculated with TMV (8 μg/ml in a phosphate buffer (pH 7.0)) or mock (buffer alone), and incubated at 30° C. for 40 hr. After the incubation, petioles of the leaves were put into vials containing 0.5 ml of inhibitor solutions. The solution was absorbed through the petioles and sterile water was added to the vials within 1 hr. The treated leaves were then further incubated at 30° C.

[2] = test system: TMV-infected NN tobacco leaves; assay: Induction of necrotic lesion formation by protease inhibitors in TMV-inoculated detached leaves, nn tobacco; format: in vivo, N. tabacum cv. Samsun nn; parameters: key: (−) = Necrotic lesion not induced; (+) = Necrotic lesion induced
Procedure: as §1, §2, §3, §4, §5, §6, §7

[3] = test system: TMV-infected NN tobacco; settings: AMD and heat (50° C., 2 minutes), 30° C.; cited from earlier work
[4] = test system: TMV-infected NN tobacco; settings: AMD and heat (50° C., 2 minutes); cited from earlier work
[5] = test system: DS9; assay: DS9 transcription level and protein amount after AMD treatment (northern and western blotting analysis); format: in vivo, NN tobacco
Procedure: Prior to the treatments, tobacco leaves were detached, inoculated with TMV (10 μg/ml in a phosphate buffer (pH 7.0)) or mock inoculated (buffer alone), and incubated at 30° C. for 40 hr. For reagent treatment, after the incubation, petioles of the leaves were put into vials containing 0.5 ml of an inhibitor solutions containing AMD (Sigma Chemical Co., St. Louis, Mo., USA) as a 10% (v/v) methanol aqueous solution. The solution was absorbed through the petioles, and sterile water was added to the vials within 1 hr. For heat treatment, a TMV-infected NN tobacco was subjected to heat shock by treating at 50° C. for 2 minutes. Each of the treated leaves was then further incubated at 30° C. Northern analysis and Western blot analysis were performed as described in Examples 4 and 6. In addition, those treated with water were used as controls.

[6] = test system: TMV-infected NN tobacco; assay: Induction of HR by EDTA and DCMU treatments, nn tobacco; format: in vivo, N. tabacum cv. Samsun nn; settings: 30° C., EDTA 5 mM, DCMU 100 mM, necrotic lesion, PR-1 expression, salicylic acid
Procedure: (§8) To perform an inhibitor treatment with NN tobacco and nn tobacco, EDTA, a metalloprotease inhibitor, and DCMU (3-(3,4-dichlorophenyl)-1,1-dimethylurea) (Sigma Chemical Co., St Louis, Mo., USA), an inhibitor of electron transport in a photochemical system II (PSII), were used as described in Example 8. An EDTA solution was prepared as described in Example 8. The DCMU was dissolved in methanol. The concentration of the inhibitors were 5 mM and 100 mM, respectively.
(§9) After the treatment, leavs were further incubated at 30° C., then examined regarding the followig: formation of a necrotic lesion; expression of PR-1; presence of a marker gene for the HR protein; and accumulation of salicylic acid. For expression of the PR gene, Northern analysis was performed as described in Example 4. Salicylic acid was quantitated as follows.
(§10) Free salicylic acid was extracted and quantitated as described by Malamy et al. (The Plant Cell, 4, 359 (1992)). HPLC analysis was performed on a μBondasphere, 5-μm C-18 (3.9 mm×15 cm) column maintained at 40° C. Isocratic separation was conducted with 23% (v/v) methanol in 20 mM sodium acetate (pH 5.0). Fluorescence detection was performed at using a Model RF-550A (Shimazu, Japan) at […]. All data were corrected for losses.

[7] = test system: TMV-infected NN tobacco; assay: Induction of HR by EDTA and DCMU treatments, NN tobacco; format: in vivo, N. tabacum cv. Samsun NN; settings: 30° C., EDTA 5 mM, DCMU 100 mM, necrotic lesion, PR-1 expression, salicylic acid
Procedure: as §8, §9, §10

[8] = TMV-inoculated leaves at 30° C., EDTA 1 mM, 10 mM and 50 mM, other inhibitors 0.01 mM, 0.1 mM and 1 mM

With `O=c1oc(Cl)c(Cl)c2ccccc12` [3,4-D] the “induction of necrotic lesion formation, Tobacco cv. NN” value [1, 8] was “−” and the “induction of necrotic lesion formation, Tobacco cv. nn” value [2, 8] was “−”.
For `Cc1c2oc3c(C)ccc(C(=O)N[C@@H]4C(=O)N[C@H](C(C)C)C(=O)N5CCC[C@H]5C(=O)N(C)CC(=O)N(C)[C@@H](C(C)C)C(=O)O[C@@H]4C)c3nc-2c(C(=O)N[C@@H]2C(=O)N[C@H](C(C)C)C(=O)N3CCC[C@H]3C(=O)N(C)CC(=O)N(C)[C@@H](C(C)C)C(=O)O[C@@H]2C)c(N)c1=O` [AMD, actinomycin D] (I: T[dV]P[Sar][NMeV] / II: T[dV]P[Sar][NMeV]; ester I:1-I:C, II:1-II:C; linker I:N-II:N via Actinocin(9to1)), the “HR against TMV infection, NN tobacco” value [3] is listed as “the HR is induced”, the “HR against TMV infection, nn tobacco” value [4] is listed as “the HR was also induced” and the DS9 transcription level ([5]; TMV-infected NN tobacco, 30° C., northern analysis) is listed as “decrease significantly”. The DS9 protein amount ([5]; TMV-infected NN tobacco, 30° C., western blot) was “decrease significantly” and the “amount of the DS9 protein, mock infected leaf” value ([5]; leaf subjected to mock infection, treated with AMD and heat shock (HS)) was “remarkably decreased”.
With `N=C(N)c1ccc(CS(=O)(=O)F)cc1` [APMSF] the “induction of necrotic lesion formation, Tobacco cv. NN” value [1, 8] was “−” and the “induction of necrotic lesion formation, Tobacco cv. nn” value [2, 8] was “−”.
With `CN(C)C(=O)Nc1ccc(Cl)c(Cl)c1` [DCMU, 3-(3,4-dichlorophenyl)-1,1-dimethylurea] the “induction of the HR in nn tobacco” value [6] was “induced the HR” and the “induction of the HR in NN tobacco” value [7] was “induced the HR”.
With `CC(C)C[C@H](NC(=O)[C@H]1O[C@@H]1C(=O)O)C(=O)NCCCCN=C(N)N` [E-64] the “induction of necrotic lesion formation, Tobacco cv. NN” value [1, 8] was “−” and the “induction of necrotic lesion formation, Tobacco cv. nn” value [2, 8] was “−”.
With `O=C(O)CN(CCN(CC(=O)O)CC(=O)O)CC(=O)O` [EDTA] the “induction of the HR in nn tobacco” value [6] was “induced the HR”, the “induction of the HR in NN tobacco” value [7] was “induced the HR” and the “induction of necrotic lesion formation, Tobacco cv. NN” value ([1]; in vivo) was “+”. For the same molecule, the “necrotic lesion in NN tobacco” value ([1]; in vivo) was “necrotic lesion was induced” and the “induction of necrotic lesion formation, Tobacco cv. nn” value ([2]; in vivo) was “+”.
For `CC(=O)N[C@@H](CC(C)C)C(=O)N[C@@H](CC(C)C)C(=O)N[C@H](C=O)CCCNC(=N)N` [leupeptin], the “induction of necrotic lesion formation, Tobacco cv. NN” value [1, 8] was “−” and the “induction of necrotic lesion formation, Tobacco cv. nn” value [2, 8] was “−”.
In the case of Aprotinin, the “induction of necrotic lesion formation, Tobacco cv. NN” value [1, 8] is reported as “−” and the “induction of necrotic lesion formation, Tobacco cv. nn” value [2, 8] is reported as “−”.
